According to paper PMC3311629, “Rational Design and Characterization of D-Phe-Pro-D-Arg-Derived Direct Thrombin Inhibitors” (PLoS ONE, 2012):
Square brackets hold non-standard residues; d marks the D form. Peptide text beside a SMILES is read from it. 2Thi = N[C@@H](Cc1cccs1)C(=O)O

Legend:
[1] = molecular target: bovine α-thrombin (Bos taurus, UniProt P00735); assay: Inhibition of thrombin's hydrolytic activity towards chromogenic substrate S2238; assay type: biochemical; conditions: bovine α-thrombin 5 nM, 25°C, pH 7.46
Method: In a first instance, the inhibitory constants (Ki) for all peptides were determined using pseudo-first order kinetics. […] Substrate hydrolysis at 25°C, in sodium phosphate buffer pH 7.46, with 0.2 M NaCl and 50 µg/ml bovine serum albumin was monitored in real-time at 405 nm using a thermostated spectrophotometer (Cary), assuring that the hydrolysis of the chromogenic substrate was complete. Each kinetic trace was fitted to a first-order reaction mathematical model (At = A0*e^−kt or At = A0+a*(1−e^−kt)). The Ki was determined from the equation Ki = [I]/(kobs uninhibited/kobs inhibited−1), where kobs is the pseudo-first order rate constant and [I] is the molar inhibitor concentration. For the inhibitors that were structurally characterized, the kinetic parameters of S2238 hydrolysis and the type of inhibition were determined using 5 nM bovine α-thrombin (Sigma) and varying concentrations of both substrate (0–200 µM) and peptide inhibitors (0–50 µM). The data was fitted to a competitive enzyme inhibition model using Prism5 (GraphPad Software) and the built-in nonlinear regression global analysis package to determine the values for Ki, KM and Vmax. The goodness of fit was assessed using the built-in statistical analysis package, which enabled the calculation of R^2 values.

[2] = molecular target: T1, factor Xa (Homo sapiens, UniProt P00742); assay: Inhibitory activity towards factor Xa (chromogenic substrate S2222); assay type: biochemical; conditions: for Ki: factor Xa 15 nM, S2222 0.18 mM, Ki = IC50/(1+S/KM), competitive mechanism assumed; for selectivity for thrombin versus factor Xa: ratio of Ki values, thrombin vs factor Xa
T1 construct: Factor Xa (15 nM; American Diagnostica); purchased American Diagnostica
T1 sequence (P00742 235-488 limits assumed): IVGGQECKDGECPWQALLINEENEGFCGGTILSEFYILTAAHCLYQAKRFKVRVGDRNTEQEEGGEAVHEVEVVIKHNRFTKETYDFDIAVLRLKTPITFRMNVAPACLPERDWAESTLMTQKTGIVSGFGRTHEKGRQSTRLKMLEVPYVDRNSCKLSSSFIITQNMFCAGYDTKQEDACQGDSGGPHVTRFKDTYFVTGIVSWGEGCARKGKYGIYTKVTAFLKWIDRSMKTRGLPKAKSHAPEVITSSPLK
T1 sequence (P00742 41-179 partner limits assumed): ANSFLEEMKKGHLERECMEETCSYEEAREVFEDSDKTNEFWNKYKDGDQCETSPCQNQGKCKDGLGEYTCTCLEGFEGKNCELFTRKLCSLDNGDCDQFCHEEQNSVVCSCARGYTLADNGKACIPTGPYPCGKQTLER
Method: (§1) Factor Xa (15 nM; American Diagnostica) or trypsin (25 nM; Sigma) was incubated for 15 min at room temperature with 20–1600 µM of fPrI, fPrC or fPrt in 50 mM Tris-HCl pH 8.0 and 150 mM NaCl (factor Xa) or 50 mM Tris-HCl pH 8.0, 150 mM NaCl and 160 mM CaCl2 prior to substrate addition. The chromogenic substrates were S2222 (Nα-Benzoyl-L-isoleucyl-L-glutamyl-glycyl-L-arginine-4-nitroanilide hydrochloride; American Diagnostica) for factor Xa or BAPNA (Nα-Benzoyl-L-arginine-4-nitroanilide hydrochloride; Sigma) for trypsin. Substrate hydrolysis was monitored at 405 (S2222) or 410 nm (BAPNA) using a thermostated spectrophotometer (Cary). IC50 values were determined using the built in equation provided by Prism5 (GraphPad Software).

[3] = molecular target: T2, trypsin (Bos taurus, UniProt P00760); assay: Inhibitory activity towards trypsin (chromogenic substrate BAPNA); assay type: biochemical; conditions: for selectivity for thrombin versus trypsin: ratio of Ki values, thrombin vs trypsin; for Ki: trypsin 25 nM, BAPNA 1.84 mM, Ki = IC50/(1+S/KM), competitive mechanism assumed
T2 sequence (P00760 24-246): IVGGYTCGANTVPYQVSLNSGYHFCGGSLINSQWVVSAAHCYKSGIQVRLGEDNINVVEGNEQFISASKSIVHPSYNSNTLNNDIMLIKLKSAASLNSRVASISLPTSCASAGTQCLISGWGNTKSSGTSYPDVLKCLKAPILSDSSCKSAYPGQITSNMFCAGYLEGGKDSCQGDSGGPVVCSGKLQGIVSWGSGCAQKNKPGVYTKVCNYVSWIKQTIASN
Method: as §1

[4] = molecular target: α-thrombin (Bos taurus, UniProt P00735); assay: Inhibitor resistance to proteolysis by thrombin (ESI mass spectrometry); assay type: in vitro ADME; conditions: 20 µM peptide with 20 µM α-thrombin, 24 h, room temperature, pH 7.46, mass spectrometry
Method: After 24 h incubation, aliquots were removed and the reaction was quenched with 0.1% TFA. The samples were analyzed on an ESI spectrometer run in the positive mode. As the expected molecular mass of the tripeptide resulting from the hydrolysis of the D-Arg-P1′ peptide bond is 418.5 Da, spectra were acquired in the 400–1000 Da window.

Row | Compound | Ki [1] [µM] | also measured
1 | CC(C)C[C@H](NC(=O)[C@@H](CCCNC(=N)N)NC(=O)[C@@H]1CCCN1C(=O)[C@H](N)Cc1ccccc1)C(N)=O [Peptide 25, D-Phe-Pro-D-Arg-Leu] (H-[dF]P[dR]L-NH2) | 20.6 ± 4.5 | –
2 | CC[C@@H](C)[C@@H](NC(=O)[C@@H](CCCNC(=N)N)NC(=O)[C@@H]1CCCN1C(=O)[C@H](N)Cc1ccccc1)C(N)=O [Peptide 24, D-Phe-Pro-D-Arg-D-Ile] (H-[dF]P[dR][dI]-NH2) | 7.44 ± 0.5 | –
3 | N=C(N)NCCC[C@@H](NC(=O)[C@@H]1CCCN1C(=O)[C@H](N)Cc1ccccc1)C(=O)N[C@@H](CCC(=O)O)C(N)=O [Peptide 6, D-Phe-Pro-D-Arg-Glu] (H-[dF]P[dR]E-NH2) | 556 ± 89.6 | –
4 | N=C(N)NCCC[C@@H](NC(=O)[C@@H]1CCCN1C(=O)[C@H](N)Cc1ccccc1)C(=O)N[C@@H](Cc1c[nH]cn1)C(N)=O [Peptide 7, D-Phe-Pro-D-Arg-His] (H-[dF]P[dR]H-NH2) | 122 ± 9.5 | –
5 | CC(C)[C@@H](NC(=O)[C@@H](CCCNC(=N)N)NC(=O)[C@@H]1CCCN1C(=O)[C@H](N)Cc1ccccc1)C(N)=O [Peptide 14, D-Phe-Pro-D-Arg-D-Val] (H-[dF]P[dR][dV]-NH2) | 2.17 ± 0.6 | –
6 | N=C(N)NCCC[C@@H](NC(=O)[C@@H]1CCCN1C(=O)[C@H](N)Cc1ccccc1)C(=O)N1CCC[C@@H]1C(N)=O [Peptide 10, D-Phe-Pro-D-Arg-D-Pro] (H-[dF]P[dR][dP]-NH2) | 489 ± 113 | –
7 | N=C(N)NCCC[C@@H](NC(=O)[C@@H]1CCCN1C(=O)[C@H](N)Cc1ccccc1)C(=O)N[C@@H](Cc1c[nH]c2ccccc12)C(N)=O [Peptide 11, D-Phe-Pro-D-Arg-Trp] (H-[dF]P[dR]W-NH2) | 65.6 ± 7.2 | –
8 | C[C@H](O)[C@@H](NC(=O)[C@@H](CCCNC(=N)N)NC(=O)[C@@H]1CCCN1C(=O)[C@H](N)Cc1ccccc1)C(N)=O [Peptide 16, D-Phe-Pro-D-Arg-D-Thr] (H-[dF]P[dR][dT]-NH2) | 0.92 ± 0.08 | Ki [2]: 103 ± 1.44 µM; selectivity for thrombin versus factor Xa [2]: 110 fold; selectivity for thrombin versus trypsin [3]: 420 fold; Ki [3]: 389 ± 5.5 µM; Stability against thrombin hydrolysis (cleavage product D-Phe-Pro-D-Arg, 418.5 Da) [4]: could not be identified
9 | N=C(N)NCCC[C@H](NC(=O)[C@@H](CCCNC(=N)N)NC(=O)[C@@H]1CCCN1C(=O)[C@H](N)Cc1ccccc1)C(N)=O [Peptide 4, D-Phe-Pro-D-Arg-Arg] (H-[dF]P[dR]R-NH2) | 91.1 ± 8.2 | –
10 | N=C(N)NCCC[C@@H](NC(=O)[C@@H]1CCCN1C(=O)[C@H](N)Cc1ccccc1)C(=O)N[C@H](CS)C(N)=O [Peptide 20, D-Phe-Pro-D-Arg-D-Cys] (H-[dF]P[dR][dC]-NH2) | 2.4 ± 0.05 | –
11 | N=C(N)NCCC[C@@H](NC(=O)[C@@H]1CCCN1C(=O)[C@H](N)Cc1ccccc1)C(=O)N[C@@H](Cc1cccs1)C(N)=O [Peptide 27, D-Phe-Pro-D-Arg-Thi] (H-[dF]P[dR][2Thi]-NH2) | 8.16 ± 0.35 | –
12 | CC(C)[C@H](NC(=O)[C@@H](CCCNC(=N)N)NC(=O)[C@@H]1CCCN1C(=O)[C@H](N)Cc1ccccc1)C(N)=O [Peptide 13, D-Phe-Pro-D-Arg-Val] (H-[dF]P[dR]V-NH2) | 56.3 ± 1.5 | –
13 | N=C(N)NCCC[C@@H](NC(=O)[C@@H]1CCCN1C(=O)[C@H](N)Cc1ccccc1)C(=O)N1CCC[C@H]1C(N)=O [Peptide 9, D-Phe-Pro-D-Arg-Pro] (H-[dF]P[dR]P-NH2) | 89.5 ± 5.5 | –
14 | N=C(N)NCCC[C@@H](NC(=O)[C@@H]1CCCN1C(=O)[C@H](N)Cc1ccccc1)C(=O)N[C@@H](CCCCN)C(N)=O [Peptide 5, D-Phe-Pro-D-Arg-Lys] (H-[dF]P[dR]K-NH2) | 66.6 ± 6.5 | –
15 | N=C(N)NCCC[C@@H](NC(=O)[C@@H]1CCCN1C(=O)[C@H](N)Cc1ccccc1)C(=O)NCC(N)=O [Peptide 3, D-Phe-Pro-D-Arg-Gly] (H-[dF]P[dR]G-NH2) | 5.9 ± 0.2 | –

Second part, led by results:

Row | Ki [1] [µM] | Compound | also measured
16 | 43.1 ± 2.6 | N=C(N)NCCC[C@@H](NC(=O)[C@@H]1CCCN1C(=O)[C@H](N)Cc1ccccc1)C(=O)N[C@@H](CCC(N)=O)C(N)=O [Peptide 21, D-Phe-Pro-D-Arg-Gln] (H-[dF]P[dR]Q-NH2) | –
17 | 12.3 ± 0.08 | N=C(N)NCCC[C@@H](NC(=O)[C@@H]1CCCN1C(=O)[C@H](N)Cc1ccccc1)C(=O)N[C@H](CO)C(N)=O [Peptide 18, D-Phe-Pro-D-Arg-D-Ser] (H-[dF]P[dR][dS]-NH2) | –
18 | 250 ± 20 | N=C(N)NCCC[C@@H](NC(=O)[C@@H]1CCCN1C(=O)[C@H](N)Cc1ccccc1)C(=O)N[C@@H](Cc1ccccc1)C(N)=O [Peptide 8, D-Phe-Pro-D-Arg-Phe] (H-[dF]P[dR]F-NH2) | –
19 | 12.5 ± 0.35 | C[C@@H](O)[C@H](NC(=O)[C@@H](CCCNC(=N)N)NC(=O)[C@@H]1CCCN1C(=O)[C@H](N)Cc1ccccc1)C(N)=O [Peptide 15, D-Phe-Pro-D-Arg-Thr] (H-[dF]P[dR]T-NH2) | –
20 | 4.13 ± 0.24 | CC(C)C[C@@H](NC(=O)[C@@H](CCCNC(=N)N)NC(=O)[C@@H]1CCCN1C(=O)[C@H](N)Cc1ccccc1)C(N)=O [Peptide 26, D-Phe-Pro-D-Arg-D-Leu] (H-[dF]P[dR][dL]-NH2) | –
21 | 17.1 ± 0.8 | N=C(N)NCCC[C@@H](NC(=O)[C@@H]1CCCN1C(=O)[C@H](N)Cc1ccccc1)C(=O)N[C@@H](CO)C(N)=O [Peptide 17, D-Phe-Pro-D-Arg-Ser] (H-[dF]P[dR]S-NH2) | –
22 | 2.06 ± 0.04 | C[C@@H](NC(=O)[C@@H](CCCNC(=N)N)NC(=O)[C@@H]1CCCN1C(=O)[C@H](N)Cc1ccccc1)C(N)=O [Peptide 2, D-Phe-Pro-D-Arg-D-Ala] (H-[dF]P[dR][dA]-NH2) | –
23 | 19.3 ± 0.6 | N=C(N)NCCC[C@@H](NC(=O)[C@@H]1CCCN1C(=O)[C@H](N)Cc1ccccc1)C(=O)N[C@H](CCC(N)=O)C(N)=O [Peptide 22, D-Phe-Pro-D-Arg-D-Gln] (H-[dF]P[dR][dQ]-NH2) | –
24 | 37.2 ± 2.5 | CSCC[C@H](NC(=O)[C@@H](CCCNC(=N)N)NC(=O)[C@@H]1CCCN1C(=O)[C@H](N)Cc1ccccc1)C(N)=O [Peptide 28, D-Phe-Pro-D-Arg-Met] (H-[dF]P[dR]M-NH2) | –
25 | 16.5 ± 1.5 | N=C(N)NCCC[C@@H](NC(=O)[C@@H]1CCCN1C(=O)[C@H](N)Cc1ccccc1)C(=O)N[C@@H](CS)C(N)=O [Peptide 19, D-Phe-Pro-D-Arg-Cys] (H-[dF]P[dR]C-NH2) | Ki [2]: 41.4 ± 2.6 µM; selectivity for thrombin versus factor Xa [2]: 3 fold; selectivity for thrombin versus trypsin [3]: 20 fold; Ki [3]: 377.1 ± 3.6 µM; Stability against thrombin hydrolysis (cleavage product D-Phe-Pro-D-Arg, 418.5 Da) [4]: could not be identified
26 | 50.5 ± 3.4 | N=C(N)NCCC[C@@H](NC(=O)[C@@H]1CCCN1C(=O)[C@H](N)Cc1ccccc1)C(=O)N[C@@H](Cc1ccc(O)cc1)C(N)=O [Peptide 12, D-Phe-Pro-D-Arg-Tyr] (H-[dF]P[dR]Y-NH2) | –
27 | 16.6 ± 0.8 | C[C@H](NC(=O)[C@@H](CCCNC(=N)N)NC(=O)[C@@H]1CCCN1C(=O)[C@H](N)Cc1ccccc1)C(N)=O [Peptide 1, D-Phe-Pro-D-Arg-Ala] (H-[dF]P[dR]A-NH2; N-terminus assumed) | –
28 | 7.7 ± 0.73 | CC[C@H](C)[C@H](NC(=O)[C@@H](CCCNC(=N)N)NC(=O)[C@@H]1CCCN1C(=O)[C@H](N)Cc1ccccc1)C(N)=O [Peptide 23, D-Phe-Pro-D-Arg-Ile] (H-[dF]P[dR]I-NH2) | Ki [2]: 7300 µM; selectivity for thrombin versus trypsin [3]: 12 fold; Ki [3]: 90.2 ± 2.8 µM; Stability against thrombin hydrolysis (cleavage product D-Phe-Pro-D-Arg, 418.5 Da) [4]: could not be identified
